Data published in ChEMBL document CHEMBL5725509, “Substituted pyrido[3,4-b]pyrazines as GPR6 modulators” (2017).

Target: G-protein coupled receptor 6 (Homo sapiens, UniProt P46095)
Experiment: cAMP assay A.1: This cell based assay measures the ability of compounds to inhibit the constitutive cAMP activity of GPR6 receptor expressed in CHO-K1 cells. CHO cells were stably expressed with GPR6 receptor, whose expression is controlled by a tetracycline inducable element. The cells were cultured in medium containing F12K, 10% FBS, 1% Penn/Strep, 200 ug/mL Hygromycin. GPR6 receptor expression was induced for 20 hrs with 1 μg/ml doxycycline (sigma D9891) in growth media. After addition of doxycycline cells were plated at a density of 250-500 cells per well in half-volume black clear bottom plates (Costar) and place in an incubator (37°, 5% C(O)2) for 20 hours prior to cAMP assays. Culture media was removed from cells and they were washed with 50 μL of Ringer's Buffer (MgCl2 0.047 mg/mL, NaH2PO4 0.18 mg/mL, Na2HPO4 0.1 mg/mL, KCl 0.34 mg/mL, NaHC(O)3 1.26 mg/mL, D-glucose 1.8 mg/mL, NaCl 7 mg/mL; pH=7.4). Compounds suspended in DMSO were diluted in Ringer's Buffer containing 0.5% fatty acid free BSA and incubated on cells for 45 min at 37° and 5% C(O)2. After incubation cells were incubated for 10 min at room temp with Eu-cAMP tracer solution from a Perkin Elmer Lance HTRF UltracAMP assay kit (TRF0264). Then ULight-anti-cAMP solution from the Lance HTRF kit was added and incubated on a shaker at room temp for 1 hour prior to HTRF detection in a BMG PolarStar Omega. […]

Sequence of G-protein coupled receptor 6 (P46095 whole entry): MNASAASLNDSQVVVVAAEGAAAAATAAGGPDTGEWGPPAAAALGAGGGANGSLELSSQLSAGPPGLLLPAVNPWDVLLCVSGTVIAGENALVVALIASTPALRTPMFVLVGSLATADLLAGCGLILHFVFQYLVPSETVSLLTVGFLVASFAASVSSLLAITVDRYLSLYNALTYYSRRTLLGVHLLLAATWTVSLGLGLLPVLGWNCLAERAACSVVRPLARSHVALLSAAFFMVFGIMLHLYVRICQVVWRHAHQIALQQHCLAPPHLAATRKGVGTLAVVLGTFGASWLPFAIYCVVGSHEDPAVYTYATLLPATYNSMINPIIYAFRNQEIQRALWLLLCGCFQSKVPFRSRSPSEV

| IC50 [mM] | SMILES |
| --- | --- |
| > 1 | CN1CCc2nc(N3CCC(Oc4ccc(F)cc4F)CC3)c(NCC(F)F)nc2C1 |
| > 1 | CC(=O)N1CCc2nc(N3CCN(C(=O)OC(C)(C)C)CC3)c(NC(C)C)nc2C1 |
